Laboratory results from PMC5716993, “The interdomain flexible linker of the polypeptide GalNAc transferases dictates their long-range glycosylation preferences” (Nature Communications, 2017).

Target: T1, GalNAc-T4 (Homo sapiens, UniProt Q8N4A0)
T1 construct: amino acid residues 36–578 of the human GalNAc-T4; histidine tag (C); made in house; host or cells: Pichia pastoris SMD1168 (pPICZαA, secreted)
Experiment: STD-NMR binding / epitope mapping
Settings: normalized to the highest STD response; 298 K, pH 7.4, UDP, MnCl2; in words
Method: All NMR experiments were recorded on a Bruker Avance 600 MHz spectrometer equipped with a triple channel cryoprobe head. The^1H NMR resonances of the peptides 1–3 were completely assigned through standard 2D-TOCSY (30 and 80 ms mixing time) and 2D-NOESY experiments (400 ms mixing time). Solution conditions used for the NMR characterization studies were 1–3 mM (glyco)peptide, 25 mM perdeuterated tris-d11 in 90:10 H2O/D2O, 7.5 mM NaCl, and 1 mM DTT, uncorrected pH 7.4. The assignments were accomplished either at 278 or 298 K. The resonance of 2,2,3,3-tetradeutero-3-trimethylsilylpropionic acid (TSP) was used as a chemical shift reference in the^1H NMR experiments (δ TSP = 0 ppm). Peak lists for the 2D-TOCSY and 2D-NOESY spectra were generated by interactive peak picking using the computer aided resonance assignment (CARA) software.
Samples for STD experiments were prepared in perdeuterated 25 mM TRIS-d11 in deuterated water, 7.5 mM NaCl, and 1 mM DTT, uncorrected pH 7.4. STD-NMR experiments were performed at 298 K in the presence of 75 μM UDP, 75 μM MnCl2 with ~880 μM peptide (or GalNAc-O-Me) and 13.5 μM GalNAc-T4 giving a molar ratio of 65:1 peptide:GalNAc-T4.
The STD-NMR spectra were acquired with 1920 transients in a matrix with 64 k data points in t2 in a spectral window of 12335.53 Hz centered at 2819.65 Hz. An excitation sculpting module with gradients was employed to suppress the water proton signals. Selective saturation of the protein resonances (on resonance spectrum) was performed by irradiating at −1 ppm using a series of Eburp2.1000-shaped 90° pulses (50 ms, 1 ms delay between pulses) for a total saturation time of 2.0 s. For the reference spectrum (off resonance), the samples were irradiated at 100 ppm. Proper control experiments were performed with the ligands in the presence and absence of the protein in order to optimize the frequency for protein saturation (−1 ppm) and to ensure that the ligand signals were not affected. […] This nonspecific saturation was taken into account, by subtraction, when quantifying the STD-NMR data in the presence of the transferase. As well, a blank STD experiment with only the protein was also recorded. The substraction of this protein STD spectrum allowed eliminating the signal background of the protein. In all cases, to accomplish the STD-NMR-derived epitope mapping of each ligand, the STD-NMR total intensities were normalized with respect to the highest STD-NMR response. For Fig. 2b and Supplementary Fig. 1, the STD response of each amino acid corresponds to the average of STD percentages of all amino acid proton resonances that were measured with sufficient accuracy. The signal of the anomeric proton of as well as, the Hα protons of the Ala amino acids of glycopeptides could not be analyzed in the STD-NMR spectra due to their close proximity to the HDO resonance. Proton resonances, from Gly and Pro, appear in the same chemical shift region of the spectrum and were not discriminated.

T1 sequence (Q8N4A0 36-578): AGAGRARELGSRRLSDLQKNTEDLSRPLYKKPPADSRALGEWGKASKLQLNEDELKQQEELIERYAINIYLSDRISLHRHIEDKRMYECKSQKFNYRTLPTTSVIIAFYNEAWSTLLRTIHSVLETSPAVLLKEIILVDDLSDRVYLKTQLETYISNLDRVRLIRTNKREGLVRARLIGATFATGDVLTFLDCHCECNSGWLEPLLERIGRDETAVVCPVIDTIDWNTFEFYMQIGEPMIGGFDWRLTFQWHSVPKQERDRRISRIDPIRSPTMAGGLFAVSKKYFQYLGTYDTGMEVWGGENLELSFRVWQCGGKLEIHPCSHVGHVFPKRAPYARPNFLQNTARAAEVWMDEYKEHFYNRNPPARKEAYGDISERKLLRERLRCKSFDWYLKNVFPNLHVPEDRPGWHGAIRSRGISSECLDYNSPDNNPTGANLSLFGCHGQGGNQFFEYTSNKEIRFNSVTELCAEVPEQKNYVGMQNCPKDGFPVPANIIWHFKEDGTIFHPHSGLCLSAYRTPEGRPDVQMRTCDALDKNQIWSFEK

CO[C@H]1O[C@H](CO)[C@H](O)[C@H](O)[C@H]1NC(C)=O [α-methyl-GalNAc, reference compound]
STD-NMR-derived epitope mapping of GalNAc moiety: the highest STD response corresponded to the H2 proton of the GalNAc moiety followed by a modest STD of protons H4, H3, and N-acetyl group
